In ChEMBL document CHEMBL4251634, “Synthesis and antimicrobial activity of pyrimidinyl 1,3,4-oxadiazoles, 1,3,4-thiadiazoles and 1,2,4-triazoles” (2018):
The source made the active and inactive calls. The calls are words filed in the database; no cut-off is given here.

Tests used:
Assay type in all cases: functional
Staphylococcus aureus [1] = assay: Antibacterial activity against Staphylococcus aureus assessed as diameter of inhibition zone at 12.5 ug/well after 24 hrs by agar well diffusion method
Penicillium chrysogenum [2] = assay: Antifungal activity against Penicillium chrysogenum assessed as diameter of inhibition zone at 50 ug/well after 48 hrs by agar well diffusion method; conditions: for zone of inhibition at 50 µg/disc: read-out: DIZ
Penicillium chrysogenum [3] = assay: Antifungal activity against Penicillium chrysogenum assessed as diameter of inhibition zone at 12.5 ug/well after 48 hrs by agar well diffusion method
Pseudomonas aeruginosa [4] = assay: Antibacterial activity against Pseudomonas aeruginosa assessed as diameter of inhibition zone at 100 ug/well after 24 hrs by agar well diffusion method; conditions: for zone of inhibition at 100 µg/disc: read-out: DIZ
Bacillus subtilis [5] = assay: Antibacterial activity against Bacillus subtilis assessed as diameter of inhibition zone at 50 ug/well after 24 hrs by agar well diffusion method; conditions: for zone of inhibition at 50 µg/disc: read-out: DIZ
Aspergillus niger [6] = assay: Antifungal activity against Aspergillus niger assessed as diameter of inhibition zone at 100 ug/well after 48 hrs by agar well diffusion method; conditions: for zone of inhibition at 100 µg/disc: read-out: DIZ
Aspergillus niger [7] = assay: Antifungal activity against Aspergillus niger assessed as diameter of inhibition zone at 25 ug/well after 48 hrs by agar well diffusion method; conditions: for zone of inhibition at 25 µg/disc: read-out: DIZ
Bacillus subtilis [8] = assay: Antibacterial activity against Bacillus subtilis assessed as diameter of inhibition zone at 100 ug/well after 24 hrs by agar well diffusion method; conditions: for zone of inhibition at 100 µg/disc: read-out: DIZ
Aspergillus niger [9] = assay: Antifungal activity against Aspergillus niger assessed as diameter of inhibition zone at 50 ug/well after 48 hrs by agar well diffusion method; conditions: for zone of inhibition at 50 µg/disc: read-out: DIZ
Pseudomonas aeruginosa [10] = assay: Antibacterial activity against Pseudomonas aeruginosa assessed as diameter of inhibition zone at 50 ug/well after 24 hrs by agar well diffusion method; conditions: for zone of inhibition at 50 µg/disc: read-out: DIZ
Klebsiella pneumoniae [11] = assay: Antibacterial activity against Klebsiella pneumoniae assessed as diameter of inhibition zone at 50 ug/well after 24 hrs by agar well diffusion method; conditions: for zone of inhibition at 50 µg/disc: read-out: DIZ
Bacillus subtilis [12] = assay: Antibacterial activity against Bacillus subtilis assessed as diameter of inhibition zone at 12.5 ug/well after 24 hrs by agar well diffusion method; conditions: for zone of inhibition at 12.5 µg/disc: read-out: DIZ
Penicillium chrysogenum [13] = assay: Antifungal activity against Penicillium chrysogenum assessed as diameter of inhibition zone at 100 ug/well after 48 hrs by agar well diffusion method; conditions: for zone of inhibition at 100 µg/disc: read-out: DIZ
Pseudomonas aeruginosa [14] = assay: Antibacterial activity against Pseudomonas aeruginosa assessed as diameter of inhibition zone at 12.5 ug/well after 24 hrs by agar well diffusion method; conditions: for zone of inhibition at 12.5 µg/disc: read-out: DIZ
Penicillium chrysogenum [15] = assay: Antifungal activity against Penicillium chrysogenum assessed as diameter of inhibition zone at 25 ug/well after 48 hrs by agar well diffusion method; conditions: for zone of inhibition at 25 µg/disc: read-out: DIZ
Pseudomonas aeruginosa [16] = assay: Antibacterial activity against Pseudomonas aeruginosa assessed as diameter of inhibition zone at 25 ug/well after 24 hrs by agar well diffusion method; conditions: for zone of inhibition at 25 µg/disc: read-out: DIZ
Klebsiella pneumoniae [17] = assay: Antibacterial activity against Klebsiella pneumoniae assessed as diameter of inhibition zone at 100 ug/well after 24 hrs by agar well diffusion method; conditions: for zone of inhibition at 100 µg/disc: read-out: DIZ
Staphylococcus aureus [18] = assay: Antibacterial activity against Staphylococcus aureus assessed as diameter of inhibition zone at 50 ug/well after 24 hrs by agar well diffusion method
Klebsiella pneumoniae [19] = assay: Antibacterial activity against Klebsiella pneumoniae assessed as diameter of inhibition zone at 12.5 ug/well after 24 hrs by agar well diffusion method; conditions: for zone of inhibition at 12.5 µg/disc: read-out: DIZ
Bacillus subtilis [20] = assay: Antibacterial activity against Bacillus subtilis assessed as diameter of inhibition zone at 25 ug/well after 24 hrs by agar well diffusion method; conditions: for zone of inhibition at 25 µg/disc: read-out: DIZ
Staphylococcus aureus [21] = assay: Antibacterial activity against Staphylococcus aureus assessed as diameter of inhibition zone at 25 ug/well after 24 hrs by agar well diffusion method
Staphylococcus aureus [22] = assay: Antibacterial activity against Staphylococcus aureus assessed as diameter of inhibition zone at 100 ug/well after 24 hrs by agar well diffusion method; conditions: for zone of inhibition at 100 µg/disc: read-out: DIZ
Aspergillus niger [23] = assay: Antifungal activity against Aspergillus niger assessed as diameter of inhibition zone at 12.5 ug/well after 48 hrs by agar well diffusion method; conditions: for zone of inhibition at 12.5 µg/disc: read-out: DIZ
Klebsiella pneumoniae [24] = assay: Antibacterial activity against Klebsiella pneumoniae assessed as diameter of inhibition zone at 25 ug/well after 24 hrs by agar well diffusion method; conditions: for zone of inhibition at 25 µg/disc: read-out: DIZ

SMILES | zone of inhibition at 100 µg/disc (Pseudomonas aeruginosa [4]) [mm] | zone of inhibition at 100 µg/disc (Aspergillus niger [6]) [mm] | zone of inhibition at 25 µg/disc (Aspergillus niger [7]) [mm] | zone of inhibition at 100 µg/disc (Bacillus subtilis [8]) [mm] | zone of inhibition at 50 µg/disc (Aspergillus niger [9]) [mm] | zone of inhibition at 50 µg/disc (Pseudomonas aeruginosa [10]) [mm] | zone of inhibition at 50 µg/disc (Klebsiella pneumoniae [11]) [mm] | zone of inhibition at 25 µg/disc (Pseudomonas aeruginosa [16]) [mm] | zone of inhibition at 100 µg/disc (Klebsiella pneumoniae [17]) [mm] | diameter of the inhibition zone (DIZ) (Staphylococcus aureus [1]) | diameter of the inhibition zone (DIZ) (Penicillium chrysogenum [2]) | diameter of the inhibition zone (DIZ) (Penicillium chrysogenum [3]) | diameter of the inhibition zone (DIZ) (Penicillium chrysogenum [13]) | diameter of the inhibition zone (DIZ) (Penicillium chrysogenum [15]) | diameter of the inhibition zone (DIZ) (Staphylococcus aureus [18]) | diameter of the inhibition zone (DIZ) (Staphylococcus aureus [21]) | diameter of the inhibition zone (DIZ) (Bacillus subtilis [5]) | diameter of the inhibition zone (DIZ) (Bacillus subtilis [12]) | diameter of the inhibition zone (DIZ) (Bacillus subtilis [20]) | diameter of the inhibition zone (DIZ) (Staphylococcus aureus [22]) | also measured
Cc1cc(SCc2nnc(-c3ccc(Br)cc3)s2)nc(SCc2nnc(-c3ccc(Br)cc3)s2)n1 | 29 | 30 | 24 | 24 | 26 | 25 | 28 | 23 | 31 |  |  |  |  |  |  |  |  |  |  |  | zone of inhibition at 12.5 µg/disc (Staphylococcus aureus [1]; read-out: DIZ): 11 mm; zone of inhibition at 50 µg/disc (Penicillium chrysogenum [2]): 17 mm; zone of inhibition at 12.5 µg/disc (Penicillium chrysogenum [3]; read-out: DIZ): 13 mm; zone of inhibition at 50 µg/disc (Bacillus subtilis [5]): 21 mm; zone of inhibition at 12.5 µg/disc (Bacillus subtilis [12]): 17 mm; zone of inhibition at 100 µg/disc (Penicillium chrysogenum [13]): 20 mm; zone of inhibition at 12.5 µg/disc (Pseudomonas aeruginosa [14]): 19 mm; zone of inhibition at 25 µg/disc (Penicillium chrysogenum [15]): 15 mm; zone of inhibition at 50 µg/disc (Staphylococcus aureus [18]; read-out: DIZ): 15 mm; zone of inhibition at 12.5 µg/disc (Klebsiella pneumoniae [19]): 24 mm; zone of inhibition at 25 µg/disc (Bacillus subtilis [20]): 19 mm; zone of inhibition at 25 µg/disc (Staphylococcus aureus [21]; read-out: DIZ): 13 mm; zone of inhibition at 100 µg/disc (Staphylococcus aureus [22]): 17 mm; zone of inhibition at 12.5 µg/disc (Aspergillus niger [23]): 22 mm; zone of inhibition at 25 µg/disc (Klebsiella pneumoniae [24]): 26 mm
Cc1ccc(-c2nnc(CSc3cc(C)nc(SCc4nnc(-c5ccc(C)cc5)s4)n3)s2)cc1 | 19 | 15 | 11 | 13 | 13 | 15 | 18 | 12 | 20 | inactive | inactive | inactive | inactive | inactive | inactive | inactive |  |  |  |  | zone of inhibition at 50 µg/disc (Bacillus subtilis [5]): 11 mm; zone of inhibition at 12.5 µg/disc (Bacillus subtilis [12]): 8 mm; zone of inhibition at 12.5 µg/disc (Pseudomonas aeruginosa [14]): 10 mm; zone of inhibition at 12.5 µg/disc (Klebsiella pneumoniae [19]): 14 mm; zone of inhibition at 25 µg/disc (Bacillus subtilis [20]): 10 mm; zone of inhibition at 100 µg/disc (Staphylococcus aureus [22]): 8 mm; zone of inhibition at 12.5 µg/disc (Aspergillus niger [23]): 9 mm; zone of inhibition at 25 µg/disc (Klebsiella pneumoniae [24]): 16 mm
Cc1ccc(-c2nnc(CSc3cc(C)nc(SCc4nnc(-c5ccc(C)cc5)o4)n3)o2)cc1 | 12 | 9 |  |  | 7 | 10 | 8 | 8 | 10 | inactive | inactive | inactive | inactive | inactive | inactive | inactive | inactive | inactive | inactive | inactive | diameter of the inhibition zone (DIZ) (Aspergillus niger [7]): inactive; diameter of the inhibition zone (DIZ) (Bacillus subtilis [8]): inactive; diameter of the inhibition zone (DIZ) (Pseudomonas aeruginosa [14]): inactive; diameter of the inhibition zone (DIZ) (Klebsiella pneumoniae [19]): inactive; diameter of the inhibition zone (DIZ) (Aspergillus niger [23]): inactive; diameter of the inhibition zone (DIZ) (Klebsiella pneumoniae [24]): inactive
COc1ccc(-c2nnc(CSc3cc(C)nc(SCc4nnc(-c5ccc(OC)cc5)o4)n3)o2)cc1 |  |  |  |  |  |  |  |  |  | inactive | inactive | inactive | inactive | inactive | inactive | inactive | inactive | inactive | inactive | inactive | diameter of the inhibition zone (DIZ) (Pseudomonas aeruginosa [4]): inactive; diameter of the inhibition zone (DIZ) (Aspergillus niger [6]): inactive; diameter of the inhibition zone (DIZ) (Aspergillus niger [7]): inactive; diameter of the inhibition zone (DIZ) (Bacillus subtilis [8]): inactive; diameter of the inhibition zone (DIZ) (Aspergillus niger [9]): inactive; diameter of the inhibition zone (DIZ) (Pseudomonas aeruginosa [10]): inactive; diameter of the inhibition zone (DIZ) (Klebsiella pneumoniae [11]): inactive; diameter of the inhibition zone (DIZ) (Pseudomonas aeruginosa [14]): inactive; diameter of the inhibition zone (DIZ) (Pseudomonas aeruginosa [16]): inactive; diameter of the inhibition zone (DIZ) (Klebsiella pneumoniae [17]): inactive; diameter of the inhibition zone (DIZ) (Klebsiella pneumoniae [19]): inactive; diameter of the inhibition zone (DIZ) (Aspergillus niger [23]): inactive; diameter of the inhibition zone (DIZ) (Klebsiella pneumoniae [24]): inactive
COc1ccc(-c2nnc(CSc3cc(C)nc(SCc4nnc(-c5ccc(OC)cc5)s4)n3)s2)cc1 | 10 |  |  |  |  | 8 |  |  | 13 | inactive | inactive | inactive | inactive | inactive | inactive | inactive | inactive | inactive | inactive | inactive | diameter of the inhibition zone (DIZ) (Aspergillus niger [6]): inactive; diameter of the inhibition zone (DIZ) (Aspergillus niger [7]): inactive; diameter of the inhibition zone (DIZ) (Bacillus subtilis [8]): inactive; diameter of the inhibition zone (DIZ) (Aspergillus niger [9]): inactive; diameter of the inhibition zone (DIZ) (Klebsiella pneumoniae [11]): inactive; diameter of the inhibition zone (DIZ) (Pseudomonas aeruginosa [14]): inactive; diameter of the inhibition zone (DIZ) (Pseudomonas aeruginosa [16]): inactive; diameter of the inhibition zone (DIZ) (Klebsiella pneumoniae [19]): inactive; diameter of the inhibition zone (DIZ) (Aspergillus niger [23]): inactive; diameter of the inhibition zone (DIZ) (Klebsiella pneumoniae [24]): inactive
Cc1cc(SCc2nnc(-c3ccc(Br)cc3)o2)nc(SCc2nnc(-c3ccc(Br)cc3)o2)n1 | 15 | 19 | 15 | 8 | 17 | 13 | 12 | 11 | 15 | inactive |  | inactive |  |  | inactive | inactive | inactive | inactive | inactive | inactive | zone of inhibition at 50 µg/disc (Penicillium chrysogenum [2]): 9 mm; zone of inhibition at 100 µg/disc (Penicillium chrysogenum [13]): 11 mm; zone of inhibition at 12.5 µg/disc (Pseudomonas aeruginosa [14]): 9 mm; zone of inhibition at 25 µg/disc (Penicillium chrysogenum [15]): 7 mm; zone of inhibition at 12.5 µg/disc (Klebsiella pneumoniae [19]): 8 mm; zone of inhibition at 12.5 µg/disc (Aspergillus niger [23]): 13 mm; zone of inhibition at 25 µg/disc (Klebsiella pneumoniae [24]): 10 mm
